In the kinase profiling compilation of Christmann-Franck et al. (2016):
Blank lines part the entries; values can stand above or below the compound they belong to.

What was measured:
Experiment in all cases: KINOMEscan competition binding
Details in all cases: compound 10.0 µM
[1] = tested on: ABL1 (human), P00519 [E255K]
[2] = tested on: ABL1 (human), P00519 [F317I]
[3] = tested on: ABL1 (human), P00519 [F317L]
[4] = tested on: ABL1 (human), P00519 [Q252H]
ACVR1B (human) = ACVR1B (human) (UniProt P36896)
ADCK3 (human) = ADCK3 (human) (UniProt Q8NI60)
ADCK4 (human) = ADCK4 (human) (UniProt Q96D53)
AXL (human) = AXL (human) (UniProt P30530)
BMPR2 (human) = BMPR2 (human) (UniProt Q13873)
CAMK4 (human) = CAMK4 (human) (UniProt Q16566)
CDK11A (human) = CDK11A (human) (UniProt Q9UQ88)
CDK3 (human) = CDK3 (human) (UniProt Q00526)
CHEK2 (human) = CHEK2 (human) (UniProt O96017)
EPHB3 (human) = EPHB3 (human) (UniProt P54753)
FGFR1 (human) = FGFR1 (human) (UniProt P11362)
FYN (human) = FYN (human) (UniProt P06241)
INSR (human) = INSR (human) (UniProt P06213)
IRAK3 (human) = IRAK3 (human) (UniProt Q9Y616)
LCK (human) = LCK (human) (UniProt P06239)
LIMK1 (human) = LIMK1 (human) (UniProt P53667)
MAP2K6 (human) = MAP2K6 (human) (UniProt P52564)
MAPK1 (human) = MAPK1 (human) (UniProt P28482)
MAPK10 (human) = MAPK10 (human) (UniProt P53779)
MAPK12 (human) = MAPK12 (human) (UniProt P53778)
MAPK3 (human) = MAPK3 (human) (UniProt P27361)
MAPK6 (human) = MAPK6 (human) (UniProt Q16659)
MARK1 (human) = MARK1 (human) (UniProt Q9P0L2)
MARK3 (human) = MARK3 (human) (UniProt P27448)
MYO3B (human) = MYO3B (human) (UniProt Q8WXR4)
NEK7 (human) = NEK7 (human) (UniProt Q8TDX7)
NTRK1 (human) = NTRK1 (human) (UniProt P04629)
PAK3 (human) = PAK3 (human) (UniProt O75914)
PIK3CB (human) = PIK3CB (human) (UniProt P42338)
PLK1 (human) = PLK1 (human) (UniProt P53350)
PRKACB (human) = PRKACB (human) (UniProt P22694)
PRKG1 (human) = PRKG1 (human) (UniProt Q13976)
PTK6 (human) = PTK6 (human) (UniProt Q13882)
RET (human) = RET (human) (UniProt P07949)
RIPK1 (human) = RIPK1 (human) (UniProt Q13546)
TNNI3K (human) = TNNI3K (human) (UniProt Q59H18)
TSSK1B (human) = TSSK1B (human) (UniProt Q9BXA7)
TXK (human) = TXK (human) (UniProt P42681)
ZAP70 (human) = ZAP70 (human) (UniProt P43403)
Chain of ZAP70 (human) (P43403 whole entry, looked up): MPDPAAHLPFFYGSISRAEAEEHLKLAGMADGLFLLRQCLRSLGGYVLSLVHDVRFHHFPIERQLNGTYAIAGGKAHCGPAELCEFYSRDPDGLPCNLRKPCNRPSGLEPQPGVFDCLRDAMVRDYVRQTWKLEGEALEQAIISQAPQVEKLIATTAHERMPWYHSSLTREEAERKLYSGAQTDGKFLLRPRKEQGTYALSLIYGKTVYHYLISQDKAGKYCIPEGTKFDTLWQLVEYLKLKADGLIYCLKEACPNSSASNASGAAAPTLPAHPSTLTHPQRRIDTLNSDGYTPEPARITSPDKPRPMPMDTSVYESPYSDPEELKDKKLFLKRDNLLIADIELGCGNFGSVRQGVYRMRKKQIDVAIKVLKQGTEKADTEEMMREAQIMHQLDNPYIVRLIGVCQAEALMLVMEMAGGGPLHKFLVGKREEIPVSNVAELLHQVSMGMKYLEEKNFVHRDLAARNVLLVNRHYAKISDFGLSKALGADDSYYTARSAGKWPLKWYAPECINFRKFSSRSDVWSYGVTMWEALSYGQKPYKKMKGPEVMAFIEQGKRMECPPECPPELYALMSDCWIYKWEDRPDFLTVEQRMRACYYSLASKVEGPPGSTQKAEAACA

Chain of INSR (human) (P06213 whole entry, looked up): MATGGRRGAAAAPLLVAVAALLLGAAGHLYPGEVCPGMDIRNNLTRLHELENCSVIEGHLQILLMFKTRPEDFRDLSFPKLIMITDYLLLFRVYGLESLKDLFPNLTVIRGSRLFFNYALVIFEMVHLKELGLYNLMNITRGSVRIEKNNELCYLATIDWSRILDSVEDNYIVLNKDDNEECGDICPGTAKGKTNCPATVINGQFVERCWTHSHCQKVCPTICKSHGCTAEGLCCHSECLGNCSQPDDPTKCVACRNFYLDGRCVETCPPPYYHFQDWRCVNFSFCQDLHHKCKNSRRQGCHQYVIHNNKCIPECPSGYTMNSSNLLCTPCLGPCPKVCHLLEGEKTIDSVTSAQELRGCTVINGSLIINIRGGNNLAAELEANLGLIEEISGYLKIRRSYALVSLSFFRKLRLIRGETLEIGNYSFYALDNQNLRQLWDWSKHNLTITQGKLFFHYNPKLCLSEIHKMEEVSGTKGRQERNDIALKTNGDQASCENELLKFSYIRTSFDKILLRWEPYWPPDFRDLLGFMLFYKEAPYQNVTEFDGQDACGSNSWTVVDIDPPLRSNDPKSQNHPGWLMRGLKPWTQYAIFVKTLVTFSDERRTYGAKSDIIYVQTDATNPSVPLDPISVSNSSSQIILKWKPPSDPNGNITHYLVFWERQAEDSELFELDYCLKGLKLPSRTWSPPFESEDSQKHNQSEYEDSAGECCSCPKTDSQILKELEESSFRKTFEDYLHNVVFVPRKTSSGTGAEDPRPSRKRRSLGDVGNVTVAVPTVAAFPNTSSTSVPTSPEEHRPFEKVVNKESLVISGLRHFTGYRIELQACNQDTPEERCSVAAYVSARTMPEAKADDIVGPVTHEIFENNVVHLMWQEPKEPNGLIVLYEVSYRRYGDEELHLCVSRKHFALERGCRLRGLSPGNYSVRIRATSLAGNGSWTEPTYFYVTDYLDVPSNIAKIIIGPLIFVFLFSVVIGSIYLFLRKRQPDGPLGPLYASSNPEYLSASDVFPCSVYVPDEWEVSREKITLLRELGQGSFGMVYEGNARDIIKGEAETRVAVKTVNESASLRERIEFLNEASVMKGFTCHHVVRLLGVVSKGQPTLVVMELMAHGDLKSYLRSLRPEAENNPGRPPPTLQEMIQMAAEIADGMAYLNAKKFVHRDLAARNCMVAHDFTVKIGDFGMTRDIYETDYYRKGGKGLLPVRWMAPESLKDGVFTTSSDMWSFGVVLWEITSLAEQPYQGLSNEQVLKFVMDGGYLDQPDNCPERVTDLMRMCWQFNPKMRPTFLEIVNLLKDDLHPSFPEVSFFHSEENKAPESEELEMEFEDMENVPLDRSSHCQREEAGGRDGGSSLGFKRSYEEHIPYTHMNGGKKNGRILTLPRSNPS
Chain of ACVR1B (human) (P36896 whole entry, looked up): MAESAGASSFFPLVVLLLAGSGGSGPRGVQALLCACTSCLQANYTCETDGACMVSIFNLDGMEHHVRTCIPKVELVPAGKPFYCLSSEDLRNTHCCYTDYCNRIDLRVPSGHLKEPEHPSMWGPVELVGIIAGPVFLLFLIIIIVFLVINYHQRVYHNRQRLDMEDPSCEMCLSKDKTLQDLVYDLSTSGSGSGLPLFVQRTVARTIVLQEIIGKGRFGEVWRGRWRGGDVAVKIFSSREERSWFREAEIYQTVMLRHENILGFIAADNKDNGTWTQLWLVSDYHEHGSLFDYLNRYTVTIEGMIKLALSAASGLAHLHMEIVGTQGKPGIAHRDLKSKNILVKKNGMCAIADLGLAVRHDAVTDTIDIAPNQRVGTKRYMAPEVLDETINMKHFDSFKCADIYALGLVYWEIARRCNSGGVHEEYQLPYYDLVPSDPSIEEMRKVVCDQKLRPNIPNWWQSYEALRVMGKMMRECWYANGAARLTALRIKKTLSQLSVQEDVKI
Chain of EPHB3 (human) (P54753 whole entry, looked up): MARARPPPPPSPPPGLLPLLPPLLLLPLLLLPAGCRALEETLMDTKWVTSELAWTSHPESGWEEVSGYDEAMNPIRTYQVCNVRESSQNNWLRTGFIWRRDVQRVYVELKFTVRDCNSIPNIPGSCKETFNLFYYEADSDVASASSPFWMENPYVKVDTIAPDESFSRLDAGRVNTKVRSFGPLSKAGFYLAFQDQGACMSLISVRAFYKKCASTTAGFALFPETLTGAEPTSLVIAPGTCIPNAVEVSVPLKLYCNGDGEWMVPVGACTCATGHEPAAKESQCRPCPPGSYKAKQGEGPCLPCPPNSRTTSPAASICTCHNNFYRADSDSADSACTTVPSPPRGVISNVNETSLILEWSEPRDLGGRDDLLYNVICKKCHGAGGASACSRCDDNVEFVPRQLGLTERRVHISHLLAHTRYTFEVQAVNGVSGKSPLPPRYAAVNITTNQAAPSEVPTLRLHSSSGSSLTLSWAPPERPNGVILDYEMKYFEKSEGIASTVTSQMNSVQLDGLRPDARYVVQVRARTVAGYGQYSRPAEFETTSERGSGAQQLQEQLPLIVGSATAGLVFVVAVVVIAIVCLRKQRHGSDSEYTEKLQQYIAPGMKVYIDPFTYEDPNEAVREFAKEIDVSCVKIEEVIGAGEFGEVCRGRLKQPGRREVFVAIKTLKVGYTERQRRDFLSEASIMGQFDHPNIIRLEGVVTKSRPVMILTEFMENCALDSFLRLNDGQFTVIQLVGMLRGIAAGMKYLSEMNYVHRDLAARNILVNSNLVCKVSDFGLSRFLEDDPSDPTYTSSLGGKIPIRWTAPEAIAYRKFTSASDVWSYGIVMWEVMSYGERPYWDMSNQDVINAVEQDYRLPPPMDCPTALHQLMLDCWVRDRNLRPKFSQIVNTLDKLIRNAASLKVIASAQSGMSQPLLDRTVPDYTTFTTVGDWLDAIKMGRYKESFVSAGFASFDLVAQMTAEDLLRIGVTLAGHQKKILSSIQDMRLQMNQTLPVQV
Chain of CHEK2 (human) (O96017 whole entry, looked up): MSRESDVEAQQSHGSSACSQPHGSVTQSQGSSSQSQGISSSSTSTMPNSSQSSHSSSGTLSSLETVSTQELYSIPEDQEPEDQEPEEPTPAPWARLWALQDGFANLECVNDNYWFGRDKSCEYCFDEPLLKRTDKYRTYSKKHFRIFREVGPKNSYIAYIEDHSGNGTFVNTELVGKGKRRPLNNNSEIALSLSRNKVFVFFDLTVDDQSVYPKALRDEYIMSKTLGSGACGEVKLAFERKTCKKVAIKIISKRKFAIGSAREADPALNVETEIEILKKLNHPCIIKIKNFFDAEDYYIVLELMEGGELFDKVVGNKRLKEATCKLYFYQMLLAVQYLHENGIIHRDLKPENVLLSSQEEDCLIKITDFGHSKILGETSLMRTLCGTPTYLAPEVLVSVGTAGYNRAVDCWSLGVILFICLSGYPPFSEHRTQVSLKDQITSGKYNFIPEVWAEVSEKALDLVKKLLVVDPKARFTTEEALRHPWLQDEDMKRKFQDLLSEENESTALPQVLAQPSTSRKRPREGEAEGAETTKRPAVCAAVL
Chain of CDK3 (human) (Q00526 whole entry, looked up): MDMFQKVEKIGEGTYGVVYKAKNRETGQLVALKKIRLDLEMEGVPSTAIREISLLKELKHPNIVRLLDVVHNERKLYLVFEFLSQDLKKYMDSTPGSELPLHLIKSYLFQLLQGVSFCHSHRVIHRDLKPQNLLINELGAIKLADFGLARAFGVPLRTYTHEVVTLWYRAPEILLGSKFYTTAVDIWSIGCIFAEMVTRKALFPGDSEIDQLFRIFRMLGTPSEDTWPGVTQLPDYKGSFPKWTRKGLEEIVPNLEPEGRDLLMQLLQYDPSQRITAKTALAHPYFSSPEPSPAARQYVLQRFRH
Chain of TSSK1B (human) (Q9BXA7 whole entry, looked up): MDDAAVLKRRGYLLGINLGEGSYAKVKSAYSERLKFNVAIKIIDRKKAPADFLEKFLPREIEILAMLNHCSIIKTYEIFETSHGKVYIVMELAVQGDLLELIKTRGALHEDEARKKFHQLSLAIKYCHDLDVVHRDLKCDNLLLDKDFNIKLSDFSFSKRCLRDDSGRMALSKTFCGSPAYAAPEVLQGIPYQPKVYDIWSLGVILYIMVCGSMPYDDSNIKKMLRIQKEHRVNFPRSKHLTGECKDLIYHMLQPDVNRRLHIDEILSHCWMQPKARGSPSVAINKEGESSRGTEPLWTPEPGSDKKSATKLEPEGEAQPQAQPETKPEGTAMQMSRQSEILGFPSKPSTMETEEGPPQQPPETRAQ
Chain of NEK7 (human) (Q8TDX7 whole entry, looked up): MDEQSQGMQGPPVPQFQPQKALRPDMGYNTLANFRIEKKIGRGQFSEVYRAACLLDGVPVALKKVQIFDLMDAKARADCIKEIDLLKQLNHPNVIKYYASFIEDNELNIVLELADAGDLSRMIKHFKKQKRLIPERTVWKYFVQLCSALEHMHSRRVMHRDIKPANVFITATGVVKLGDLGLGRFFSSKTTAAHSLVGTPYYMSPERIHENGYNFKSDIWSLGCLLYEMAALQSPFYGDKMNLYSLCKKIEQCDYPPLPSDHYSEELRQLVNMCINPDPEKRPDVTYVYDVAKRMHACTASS

kinase still bound, per cent of control [1]: 0.6%
kinase still bound, per cent of control [2]: 28%
kinase still bound, per cent of control [3]: 20%
kinase still bound, per cent of control [4]: 2.1%
kinase still bound, per cent of control (ACVR1B (human)): 91%
kinase still bound, per cent of control (ADCK3 (human)): 100%
kinase still bound, per cent of control (ADCK4 (human)): 78%
kinase still bound, per cent of control (AXL (human)): 88%
kinase still bound, per cent of control (BMPR2 (human)): 78%
kinase still bound, per cent of control (CAMK4 (human)): 100%
kinase still bound, per cent of control (CDK11A (human)): 100%
kinase still bound, per cent of control (CDK3 (human)): 100%
kinase still bound, per cent of control (CHEK2 (human)): 81%
kinase still bound, per cent of control (EPHB3 (human)): 100%
kinase still bound, per cent of control (FGFR1 (human)): 61%
kinase still bound, per cent of control (FYN (human)): 35%
kinase still bound, per cent of control (INSR (human)): 80%
kinase still bound, per cent of control (IRAK3 (human)): 82%
kinase still bound, per cent of control (LCK (human)): 50%
kinase still bound, per cent of control (LIMK1 (human)): 97%
kinase still bound, per cent of control (MAP2K6 (human)): 100%
kinase still bound, per cent of control (MAPK1 (human)): 100%
kinase still bound, per cent of control (MAPK10 (human)): 100%
kinase still bound, per cent of control (MAPK12 (human)): 100%
kinase still bound, per cent of control (MAPK3 (human)): 100%
kinase still bound, per cent of control (MAPK6 (human)): 97%
kinase still bound, per cent of control (MARK1 (human)): 59%
kinase still bound, per cent of control (MARK3 (human)): 60%
kinase still bound, per cent of control (MYO3B (human)): 73%
kinase still bound, per cent of control (NEK7 (human)): 100%
kinase still bound, per cent of control (NTRK1 (human)): 64%
kinase still bound, per cent of control (PAK3 (human)): 37%
kinase still bound, per cent of control (PIK3CB (human)): 94%
kinase still bound, per cent of control (PLK1 (human)): 50%
kinase still bound, per cent of control (PRKACB (human)): 100%
kinase still bound, per cent of control (PRKG1 (human)): 100%
kinase still bound, per cent of control (PTK6 (human)): 86%
kinase still bound, per cent of control (RET (human)): 15%
kinase still bound, per cent of control (RIPK1 (human)): 100%
kinase still bound, per cent of control (TNNI3K (human)): 100%
kinase still bound, per cent of control (TSSK1B (human)): 100%
kinase still bound, per cent of control (TXK (human)): 85%
kinase still bound, per cent of control (ZAP70 (human)): 87%
SMILES: CN1C(=O)c2ccccc2N(C)c2nc(Nc3ccc(N4CCC(O)CC4)cc3)ncc21

kinase still bound, per cent of control [1]: 90%
kinase still bound, per cent of control [2]: 88%
kinase still bound, per cent of control [3]: 63%
kinase still bound, per cent of control [4]: 100%
kinase still bound, per cent of control (ACVR1B (human)): 100%
kinase still bound, per cent of control (ADCK3 (human)): 78%
kinase still bound, per cent of control (ADCK4 (human)): 86%
kinase still bound, per cent of control (AXL (human)): 100%
kinase still bound, per cent of control (BMPR2 (human)): 100%
kinase still bound, per cent of control (CAMK4 (human)): 100%
kinase still bound, per cent of control (CDK11A (human)): 100%
kinase still bound, per cent of control (CDK3 (human)): 97%
kinase still bound, per cent of control (CHEK2 (human)): 42%
kinase still bound, per cent of control (EPHB3 (human)): 100%
kinase still bound, per cent of control (FGFR1 (human)): 95%
kinase still bound, per cent of control (FYN (human)): 100%
kinase still bound, per cent of control (INSR (human)): 53%
kinase still bound, per cent of control (IRAK3 (human)): 84%
kinase still bound, per cent of control (LCK (human)): 100%
kinase still bound, per cent of control (LIMK1 (human)): 96%
kinase still bound, per cent of control (MAP2K6 (human)): 100%
kinase still bound, per cent of control (MAPK1 (human)): 75%
kinase still bound, per cent of control (MAPK10 (human)): 42%
kinase still bound, per cent of control (MAPK12 (human)): 67%
kinase still bound, per cent of control (MAPK3 (human)): 99%
kinase still bound, per cent of control (MAPK6 (human)): 100%
kinase still bound, per cent of control (MARK1 (human)): 95%
kinase still bound, per cent of control (MARK3 (human)): 88%
kinase still bound, per cent of control (MYO3B (human)): 77%
kinase still bound, per cent of control (NEK7 (human)): 98%
kinase still bound, per cent of control (NTRK1 (human)): 82%
kinase still bound, per cent of control (PAK3 (human)): 58%
kinase still bound, per cent of control (PIK3CB (human)): 92%
kinase still bound, per cent of control (PLK1 (human)): 0.2%
kinase still bound, per cent of control (PRKACB (human)): 100%
kinase still bound, per cent of control (PRKG1 (human)): 85%
kinase still bound, per cent of control (PTK6 (human)): 100%
kinase still bound, per cent of control (RET (human)): 100%
kinase still bound, per cent of control (RIPK1 (human)): 100%
kinase still bound, per cent of control (TNNI3K (human)): 100%
kinase still bound, per cent of control (TSSK1B (human)): 74%
kinase still bound, per cent of control (TXK (human)): 100%
kinase still bound, per cent of control (ZAP70 (human)): 65%
SMILES: COc1cc(N2CCC(O)CC2)ccc1Nc1ncc2c(n1)N1CCc3cccc(c31)C(=O)N2C

kinase still bound, per cent of control [1]: 19%
kinase still bound, per cent of control [2]: 65%
kinase still bound, per cent of control [3]: 29%
kinase still bound, per cent of control [4]: 14%
kinase still bound, per cent of control (ACVR1B (human)): 100%
kinase still bound, per cent of control (ADCK3 (human)): 100%
kinase still bound, per cent of control (ADCK4 (human)): 84%
kinase still bound, per cent of control (AXL (human)): 83%
kinase still bound, per cent of control (BMPR2 (human)): 100%
kinase still bound, per cent of control (CAMK4 (human)): 100%
kinase still bound, per cent of control (CDK11A (human)): 82%
kinase still bound, per cent of control (CDK3 (human)): 85%
kinase still bound, per cent of control (CHEK2 (human)): 84%
kinase still bound, per cent of control (EPHB3 (human)): 93%
kinase still bound, per cent of control (FGFR1 (human)): 80%
kinase still bound, per cent of control (FYN (human)): 98%
kinase still bound, per cent of control (INSR (human)): 69%
kinase still bound, per cent of control (IRAK3 (human)): 79%
kinase still bound, per cent of control (LCK (human)): 28%
kinase still bound, per cent of control (LIMK1 (human)): 100%
kinase still bound, per cent of control (MAP2K6 (human)): 97%
kinase still bound, per cent of control (MAPK1 (human)): 94%
kinase still bound, per cent of control (MAPK10 (human)): 58%
kinase still bound, per cent of control (MAPK12 (human)): 81%
kinase still bound, per cent of control (MAPK3 (human)): 93%
kinase still bound, per cent of control (MAPK6 (human)): 100%
kinase still bound, per cent of control (MARK1 (human)): 100%
kinase still bound, per cent of control (MARK3 (human)): 100%
kinase still bound, per cent of control (MYO3B (human)): 100%
kinase still bound, per cent of control (NEK7 (human)): 70%
kinase still bound, per cent of control (NTRK1 (human)): 1.6%
kinase still bound, per cent of control (PAK3 (human)): 82%
kinase still bound, per cent of control (PIK3CB (human)): 88%
kinase still bound, per cent of control (PLK1 (human)): 99%
kinase still bound, per cent of control (PRKACB (human)): 100%
kinase still bound, per cent of control (PRKG1 (human)): 100%
kinase still bound, per cent of control (PTK6 (human)): 82%
kinase still bound, per cent of control (RET (human)): 95%
kinase still bound, per cent of control (RIPK1 (human)): 100%
kinase still bound, per cent of control (TNNI3K (human)): 87%
kinase still bound, per cent of control (TSSK1B (human)): 64%
kinase still bound, per cent of control (TXK (human)): 80%
kinase still bound, per cent of control (ZAP70 (human)): 100%
SMILES: COc1cc(N2CCN(C)CC2)ccc1Nc1ncc2c(n1)Nc1ccccc1NC2=O
